Among the data in patent US9650339B2, “Inhibitors of histone demethylases” (Gilead Sciences, Inc., priority 2013, dated 2017) are IC50 values, retold here.

For experiment [1], the target named is T1, KDM4C (Homo sapiens, UniProt Q9H3R0).
T1 construct: Full length; host or cells: U2OS
T1 sequence (Q9H3R0 1-1056): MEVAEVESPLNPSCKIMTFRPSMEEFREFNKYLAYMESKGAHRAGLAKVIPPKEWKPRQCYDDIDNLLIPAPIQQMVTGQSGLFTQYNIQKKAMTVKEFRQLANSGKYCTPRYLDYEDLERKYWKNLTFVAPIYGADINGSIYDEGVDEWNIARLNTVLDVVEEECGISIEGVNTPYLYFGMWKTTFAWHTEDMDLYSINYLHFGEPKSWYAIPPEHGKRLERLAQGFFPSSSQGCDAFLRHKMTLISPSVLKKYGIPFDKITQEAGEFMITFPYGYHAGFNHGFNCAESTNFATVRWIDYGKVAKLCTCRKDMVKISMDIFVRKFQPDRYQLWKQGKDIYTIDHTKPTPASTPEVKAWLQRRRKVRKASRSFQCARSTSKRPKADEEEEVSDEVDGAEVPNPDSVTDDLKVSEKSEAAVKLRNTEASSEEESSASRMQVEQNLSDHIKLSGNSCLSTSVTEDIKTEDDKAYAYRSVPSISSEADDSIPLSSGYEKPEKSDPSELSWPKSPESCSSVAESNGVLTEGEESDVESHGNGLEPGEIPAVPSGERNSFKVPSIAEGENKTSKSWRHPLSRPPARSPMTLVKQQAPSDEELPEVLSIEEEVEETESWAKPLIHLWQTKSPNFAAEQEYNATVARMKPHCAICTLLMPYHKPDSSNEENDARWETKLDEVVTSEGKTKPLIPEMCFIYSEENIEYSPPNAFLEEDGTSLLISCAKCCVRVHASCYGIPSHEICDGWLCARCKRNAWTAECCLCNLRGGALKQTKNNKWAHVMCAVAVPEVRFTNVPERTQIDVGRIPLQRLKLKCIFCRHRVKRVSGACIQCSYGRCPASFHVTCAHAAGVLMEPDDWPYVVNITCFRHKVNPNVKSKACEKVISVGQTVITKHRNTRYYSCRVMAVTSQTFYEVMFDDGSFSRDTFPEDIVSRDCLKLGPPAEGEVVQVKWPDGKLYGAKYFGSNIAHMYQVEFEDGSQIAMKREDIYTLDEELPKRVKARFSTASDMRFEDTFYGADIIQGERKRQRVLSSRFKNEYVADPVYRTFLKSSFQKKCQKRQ
Briefly: Histone lysine demethylase immunofluorescence assay, U2OS cells transfected with KDM4C. It counts as cell-based. Conditions: U2OS cells transfected with pCMVHA KDM4C; mark detected H3K9me3; 20 hours. Summed up: (§1)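 U2OS cells were transiently transfected with HA-tagged demethylase and reseeded after 6 h into compound-containing DMEM/10% FBS for 20 h. Cells were fixed in formaldehyde and immunostained for HA and the relevant histone methyl mark, then imaged. IC50 is based on mean mark staining in HA+ transfected cells.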

For experiment [2], the target named is T2, KDM5B (Homo sapiens, UniProt Q9UGL1).
T2 construct: (a.a. 1-752); host or cells: U2OS
T2 sequence (Q9UGL1 1-752): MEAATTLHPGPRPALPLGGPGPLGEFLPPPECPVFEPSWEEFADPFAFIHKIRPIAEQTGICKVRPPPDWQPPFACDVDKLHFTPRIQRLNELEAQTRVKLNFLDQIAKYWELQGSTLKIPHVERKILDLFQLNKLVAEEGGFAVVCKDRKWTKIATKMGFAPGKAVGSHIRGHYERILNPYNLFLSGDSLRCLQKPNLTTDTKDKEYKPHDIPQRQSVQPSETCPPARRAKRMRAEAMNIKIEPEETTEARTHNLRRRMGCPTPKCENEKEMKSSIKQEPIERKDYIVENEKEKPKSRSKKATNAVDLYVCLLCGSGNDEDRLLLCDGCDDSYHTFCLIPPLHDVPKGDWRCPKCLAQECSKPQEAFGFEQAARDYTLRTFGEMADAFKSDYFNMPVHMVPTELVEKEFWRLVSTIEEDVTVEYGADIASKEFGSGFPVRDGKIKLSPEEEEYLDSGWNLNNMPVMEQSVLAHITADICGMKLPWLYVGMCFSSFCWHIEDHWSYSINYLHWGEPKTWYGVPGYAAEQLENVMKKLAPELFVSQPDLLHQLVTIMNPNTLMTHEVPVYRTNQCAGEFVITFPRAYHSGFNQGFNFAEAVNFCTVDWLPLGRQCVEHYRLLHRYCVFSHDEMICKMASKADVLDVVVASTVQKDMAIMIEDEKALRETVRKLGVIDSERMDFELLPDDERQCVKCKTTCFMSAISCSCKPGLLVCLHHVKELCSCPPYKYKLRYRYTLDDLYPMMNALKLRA
Briefly: Histone lysine demethylase immunofluorescence assay, U2OS cells transfected with KDM5B. It counts as cell-based. Conditions: U2OS cells transfected with pCMVHA KDM5B; mark detected H3K4me2; 20 hours. An outline of the steps:
as §1

Experiment [3] concerns the target KDM6A (UTX) (Homo sapiens, UniProt O15550). In words: Histone lysine demethylase AlphaLISA assay, KDM6A. Particulars: read-out: KDM6A HDME Inhibition IC50. Type of experiment: biochemical. An outline of the steps:
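Steps: enzyme equilibrated 10 min in buffer; compounds in 3% DMSO solution added, 10 min; substrate mix added (peptide, 25 μM L-Asc, 10 μM α-KG), room temperature; acceptor beads, then streptavidin donor beads, dark incubations; plate read.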
In general terms: In Alpha technology, singlet oxygen from a donor bead excites a nearby acceptor bead.

pIC50: −log10 of the molar value.

Sequence of KDM6A (UTX) (O15550 919-1401): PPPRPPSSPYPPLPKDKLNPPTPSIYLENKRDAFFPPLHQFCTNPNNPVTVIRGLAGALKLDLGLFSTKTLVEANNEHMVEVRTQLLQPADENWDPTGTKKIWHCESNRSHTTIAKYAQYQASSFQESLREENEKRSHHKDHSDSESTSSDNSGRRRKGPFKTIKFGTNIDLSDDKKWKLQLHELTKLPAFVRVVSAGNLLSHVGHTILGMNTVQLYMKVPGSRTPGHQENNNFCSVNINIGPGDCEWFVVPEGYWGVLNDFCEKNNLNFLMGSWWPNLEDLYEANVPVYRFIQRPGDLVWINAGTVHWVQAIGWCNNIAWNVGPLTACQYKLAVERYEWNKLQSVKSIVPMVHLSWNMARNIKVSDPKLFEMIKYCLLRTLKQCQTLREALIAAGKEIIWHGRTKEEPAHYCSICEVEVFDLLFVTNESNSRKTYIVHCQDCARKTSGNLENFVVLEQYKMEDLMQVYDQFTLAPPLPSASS

For the compound `CN(C)CCCCNCc1cc(CN)ccn1` [Compound 2, [2-({[4-(dimethylamino)butyl]-amino}methyl)pyridin-4-yl]methanamine], the pIC50 – broadly, the negative decadic logarithm of the IC50, by convention in mol/L – is 5.60 to 6.60 in experiment [1], over 6.60 in experiment [2] and under 5.60 in experiment [3].
On to `CN(C)CCNCc1ccnc(CNCCCN(C)Cc2ccccc2)c1` [Compound 18, benzyl[3-({[4-({[2-(dimethylamino)ethyl]-amino}methyl)pyridin-2-yl]methyl}-amino)propyl]-methylamine], for which the pIC50 in experiment [3] is under 5.60.
In the case of `COCCNCc1ccnc(CNCCCN(C)Cc2ccccc2)c1` [Compound 19, benzyl(3-{[(4-{[(2-methoxyethyl)amino]-methyl}pyridin-2-yl)methyl]amino}-propyl)methylamine], the pIC50 in experiment [1], in experiment [2] and in experiment [3] was under 5.60 each time.
Take `COc1ccccc1CN1CCC(NC(=O)CNCc2cc(CNC3CC3)ccn2)CC1` [Compound 20, 2-[({4-[(cyclopropylamino)-methyl]pyridin-2-yl}methyl)amino]-N-{1-[(2-methoxyphenyl)methyl]-piperidin-4-yl}acetamide]: the negative logarithm of the IC50 (pIC50) was under 5.60 in experiment [1] and 5.60 to 6.60 in experiment [2].
On to `CCN(CCN(C)C)C(=O)CN(Cc1cc(CNC(=O)C(F)(F)F)ccn1)C(=O)C(F)(F)F` [Compound 26, N-[(2-{[N-({[2-(dimethylamino)ethyl]-(ethyl)carbamoyl}-methyl)-2,2,2-trifluoroacetamido]-methyl}pyridin-4-yl)methyl]-2,2,2-trifIuoroacetamide], for which the values for the pIC50 in experiment [1], in experiment [2] and in experiment [3] were 5.60 to 6.60, over 6.60 and under 5.60, respectively.
As for `COC(=O)CNCc1cc(/C=N/C2CC2)ccn1` [Compound 59, methyl 2-[({4-[N-cyclopropyl-carboximidoyl]pyridin-2-yl}methyl)amino]-acetate], the pIC50 in experiment [1], in experiment [2] and in experiment [3] was under 5.60 each time.
Turning to `CCN(CC)CCCCNCc1cc(C2NCCCN2C)ccn1` (stereo not drawn) [Compound 68, [4-(diethylamino)butyl]({[4-(1-methyl-1,3-diazinan-2-yl)pyridin-2-yl]methyl})amine], the pIC50 in experiment [1] is 5.60 to 6.60; in experiment [2], over 6.60; in experiment [3], under 5.60.
Turning to `O=Cc1ccnc(CNCCCCN(Cc2ccccc2)C2CC2)c1` [Compound 109, 2-[({4-[benzyl-(cyclopropyl)amino]-butyl}amino)methyl]-pyridine-4-carbaldehyde], the figures for the pIC50 in experiment [1], in experiment [2] and in experiment [3] were under 5.60, 5.60 to 6.60 and under 5.60, respectively.
As to `O=Cc1ccnc(CNCC(=O)NC2CCN(Cc3ccccc3)C2)c1` (stereo not drawn) [Compound 113, N-(1-benzylpyrrolidin-3-yl)-2-{[(4-formylpyridin-2-yl)methyl]amino}-acetamide], the pIC50 in experiment [1], in experiment [2] and in experiment [3] was under 5.60 each time.
